Earlier results in patent US20250312332A1, “TREATMENT OF MUSCLE FIBROSIS” (University of Newcastle upon Tyne, priority 2022, published 2025).
pEC50, pIC50, pKd, pKi: −log10 of the molar value. Where a name gives a salt, the structure may show the parent alone. Read-outs that look alike come from different tables or passages of the source.

What was measured:
[1] = monkey eyes; cited from earlier work
ROCK1 = ROCK1 (Homo sapiens, UniProt Q13464); conditions: cited from earlier work
ROCK2 = ROCK2 (Homo sapiens, UniProt O75116); conditions: cited from earlier work
MRCKα = MRCKα (Homo sapiens, UniProt Q5VT25); conditions: cited from earlier work
[2] = test system: myosin II light chain (MLC) phosphorylation induced by MRCKβ; conditions: in vitro; cited from earlier work
PASMC = conditions: cited from earlier work
[3] = after transient middle cerebral artery occlusion; cited from earlier work
Rho signaling = conditions: cited from earlier work
[4] = test system: PC-3 prostate cancer cell; conditions: in vitro; cited from earlier work
[5] = insulin-resistant mice; cited from earlier work
PC-3 cell = conditions: read-out: IC50 for PC-3 cell migration; cited from earlier work
MKL1 expression = conditions: 25 μM; cited from earlier work
HMG-COA reductase = HMG-COA reductase (Homo sapiens, UniProt P04035); conditions: cited from earlier work
MDA-MB-231 cells = conditions: cited from earlier work
MRCK = conditions: read-out: IC50 against MRCK; cited from earlier work
ROCK [6] = conditions: read-out: Ki (ROCK / Rho kinase); cited from earlier work
PKC = conditions: cited from earlier work
MLCK = conditions: cited from earlier work; for pKi: read-out: Ki for MLCK / MLC-kinase
neuronal cultures = conditions: cited from earlier work
[7] = molecular target: Leukemia-associated Rho guanine nucleotide exchange factor (LARG) (Homo sapiens, UniProt Q9NZN5); conditions: cited from earlier work
NIH 3T3 cells = conditions: 10-30 μM, 24 hours; cited from earlier work
Rac1 = Rac1 (Homo sapiens, UniProt P63000); conditions: cited from earlier work
[8] = test system: other Rho GTPases (such as Cdc42 or RhoA); conditions: cited from earlier work
[9] = spontaneously hypertensive rat; cited from earlier work
PKA = conditions: cited from earlier work
[10] = molecular target: cGMP-dependent protein kinase (PKG); conditions: cited from earlier work
rat aorta = conditions: cited from earlier work
ROCK [11] = conditions: read-out: Kds, binding to ROCK; cited from earlier work
[12] = in vitro; cited from earlier work
Cdc42 = Cdc42 (Homo sapiens, UniProt P60953); conditions: cited from earlier work
granulocytes = conditions: 50 μM; for 15 min; cited from earlier work
[13] = test system: Rab2, Rab7, H-Ras, Rac1, Rac 2 and RhoA wild-type; conditions: cited from earlier work
RhoA = RhoA (Homo sapiens, UniProt P61586); conditions: read-out: Kd for RhoA (RhoA subfamily Rho GTPases); cited from earlier work
B16BL6 and 4T1 cells = conditions: murine animal models; cited from earlier work
[14] = test system: Cdc42 or Rac1, nor the GEF, LARG; conditions: cited from earlier work
rat ROCK-2 = rat ROCK-2 (Rattus norvegicus, UniProt Q62868); conditions: cited from earlier work
[15] = test system: ROCK-mediated phosphorylation of MYPTT696; conditions: thoracic aorta of spontaneously hypertensive rats; cited from earlier work
[16] = 0.1%, 0.3%, and 0.5%, cited from earlier work
B16 melanoma [17] = conditions: cited from earlier work
B16 melanoma [18] = conditions: cited from earlier work; remark: listed apart in the source
RAVSMC = conditions: LPS plus INF-y; 18 hours; read-out: IC50 for accumulation of nitrite in RAVSMC; cited from earlier work
RAW 264.7 = conditions: LPS plus INF-y; 18 hours; read-out: IC50 for accumulation of nitrite in RAW 264.7; cited from earlier work
iNOS gene expression = conditions: 10-100 μM; 18 hours; cited from earlier work
[19] = test system: T47D and CAMA-1 breast cancer cells; conditions: T47D and CAMA-1 cells; cited from earlier work
CaM kinase II = conditions: cited from earlier work

Chain of ROCK2 (O75116 whole entry): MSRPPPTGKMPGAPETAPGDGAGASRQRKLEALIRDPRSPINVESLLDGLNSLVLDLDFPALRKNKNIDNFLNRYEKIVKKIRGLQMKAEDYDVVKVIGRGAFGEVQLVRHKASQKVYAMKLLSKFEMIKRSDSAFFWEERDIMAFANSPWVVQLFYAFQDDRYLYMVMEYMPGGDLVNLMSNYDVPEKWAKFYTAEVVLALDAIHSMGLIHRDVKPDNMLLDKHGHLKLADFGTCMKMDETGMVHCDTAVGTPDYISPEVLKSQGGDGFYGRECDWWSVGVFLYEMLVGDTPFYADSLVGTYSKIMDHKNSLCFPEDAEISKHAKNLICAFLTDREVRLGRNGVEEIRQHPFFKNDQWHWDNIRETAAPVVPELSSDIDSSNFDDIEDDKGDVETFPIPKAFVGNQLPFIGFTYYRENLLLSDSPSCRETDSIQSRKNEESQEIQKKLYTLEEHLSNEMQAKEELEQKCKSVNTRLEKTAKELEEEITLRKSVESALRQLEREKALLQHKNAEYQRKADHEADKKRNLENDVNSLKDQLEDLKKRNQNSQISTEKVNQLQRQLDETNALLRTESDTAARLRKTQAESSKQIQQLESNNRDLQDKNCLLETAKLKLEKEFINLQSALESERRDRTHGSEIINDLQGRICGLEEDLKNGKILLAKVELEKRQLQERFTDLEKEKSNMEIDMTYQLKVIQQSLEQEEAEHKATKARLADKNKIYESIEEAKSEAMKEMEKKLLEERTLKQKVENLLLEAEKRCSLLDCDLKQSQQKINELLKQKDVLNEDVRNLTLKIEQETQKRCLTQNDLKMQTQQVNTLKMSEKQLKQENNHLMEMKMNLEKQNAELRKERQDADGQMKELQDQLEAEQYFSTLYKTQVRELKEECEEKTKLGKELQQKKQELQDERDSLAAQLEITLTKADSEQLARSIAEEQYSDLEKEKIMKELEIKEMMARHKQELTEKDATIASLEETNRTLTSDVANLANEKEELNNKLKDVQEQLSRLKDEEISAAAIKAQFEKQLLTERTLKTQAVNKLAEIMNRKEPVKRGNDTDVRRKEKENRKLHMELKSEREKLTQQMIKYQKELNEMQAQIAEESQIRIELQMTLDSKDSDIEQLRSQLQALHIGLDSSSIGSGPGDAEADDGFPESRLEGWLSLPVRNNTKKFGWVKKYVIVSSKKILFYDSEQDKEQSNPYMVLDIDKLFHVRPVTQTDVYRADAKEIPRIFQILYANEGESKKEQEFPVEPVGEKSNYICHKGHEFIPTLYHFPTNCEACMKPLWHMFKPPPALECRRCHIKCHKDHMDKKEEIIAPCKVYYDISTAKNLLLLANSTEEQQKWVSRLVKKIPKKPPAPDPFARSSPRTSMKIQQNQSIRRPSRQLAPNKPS
Chain of ROCK1 (Q13464 whole entry): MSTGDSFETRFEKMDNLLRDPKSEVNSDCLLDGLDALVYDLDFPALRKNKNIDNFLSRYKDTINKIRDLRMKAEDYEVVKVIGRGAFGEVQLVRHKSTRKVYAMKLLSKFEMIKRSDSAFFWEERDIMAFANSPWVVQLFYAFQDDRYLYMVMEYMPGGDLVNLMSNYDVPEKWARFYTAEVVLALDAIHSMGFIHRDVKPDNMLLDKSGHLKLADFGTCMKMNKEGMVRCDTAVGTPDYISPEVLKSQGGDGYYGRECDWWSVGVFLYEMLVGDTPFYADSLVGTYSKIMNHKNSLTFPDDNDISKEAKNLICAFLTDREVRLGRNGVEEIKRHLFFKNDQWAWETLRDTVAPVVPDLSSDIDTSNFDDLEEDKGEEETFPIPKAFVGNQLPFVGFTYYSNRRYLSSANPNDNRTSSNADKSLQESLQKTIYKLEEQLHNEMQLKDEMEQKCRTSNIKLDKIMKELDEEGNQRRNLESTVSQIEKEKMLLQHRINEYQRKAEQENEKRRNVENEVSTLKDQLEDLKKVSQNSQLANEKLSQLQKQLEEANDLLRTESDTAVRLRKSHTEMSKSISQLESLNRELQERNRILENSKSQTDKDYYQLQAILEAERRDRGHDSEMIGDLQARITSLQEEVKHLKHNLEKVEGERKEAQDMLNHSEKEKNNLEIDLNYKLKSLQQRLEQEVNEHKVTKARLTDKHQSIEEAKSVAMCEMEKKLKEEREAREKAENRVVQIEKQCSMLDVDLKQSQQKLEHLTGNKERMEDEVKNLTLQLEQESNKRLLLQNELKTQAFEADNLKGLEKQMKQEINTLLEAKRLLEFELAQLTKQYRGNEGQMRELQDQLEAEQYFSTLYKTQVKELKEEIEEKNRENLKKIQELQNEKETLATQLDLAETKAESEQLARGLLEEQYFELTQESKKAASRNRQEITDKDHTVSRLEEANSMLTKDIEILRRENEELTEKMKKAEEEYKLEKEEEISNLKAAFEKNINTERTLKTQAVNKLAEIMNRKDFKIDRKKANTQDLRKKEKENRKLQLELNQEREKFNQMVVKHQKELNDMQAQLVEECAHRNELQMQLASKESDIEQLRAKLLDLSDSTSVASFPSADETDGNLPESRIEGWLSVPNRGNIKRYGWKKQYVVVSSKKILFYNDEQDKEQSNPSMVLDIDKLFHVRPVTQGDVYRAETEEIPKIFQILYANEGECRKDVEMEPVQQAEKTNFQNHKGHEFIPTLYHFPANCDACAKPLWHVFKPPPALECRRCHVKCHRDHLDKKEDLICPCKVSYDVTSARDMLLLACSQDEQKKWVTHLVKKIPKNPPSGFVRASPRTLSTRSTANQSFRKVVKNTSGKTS
Chain of MRCKα (Q5VT25 whole entry, species assumed): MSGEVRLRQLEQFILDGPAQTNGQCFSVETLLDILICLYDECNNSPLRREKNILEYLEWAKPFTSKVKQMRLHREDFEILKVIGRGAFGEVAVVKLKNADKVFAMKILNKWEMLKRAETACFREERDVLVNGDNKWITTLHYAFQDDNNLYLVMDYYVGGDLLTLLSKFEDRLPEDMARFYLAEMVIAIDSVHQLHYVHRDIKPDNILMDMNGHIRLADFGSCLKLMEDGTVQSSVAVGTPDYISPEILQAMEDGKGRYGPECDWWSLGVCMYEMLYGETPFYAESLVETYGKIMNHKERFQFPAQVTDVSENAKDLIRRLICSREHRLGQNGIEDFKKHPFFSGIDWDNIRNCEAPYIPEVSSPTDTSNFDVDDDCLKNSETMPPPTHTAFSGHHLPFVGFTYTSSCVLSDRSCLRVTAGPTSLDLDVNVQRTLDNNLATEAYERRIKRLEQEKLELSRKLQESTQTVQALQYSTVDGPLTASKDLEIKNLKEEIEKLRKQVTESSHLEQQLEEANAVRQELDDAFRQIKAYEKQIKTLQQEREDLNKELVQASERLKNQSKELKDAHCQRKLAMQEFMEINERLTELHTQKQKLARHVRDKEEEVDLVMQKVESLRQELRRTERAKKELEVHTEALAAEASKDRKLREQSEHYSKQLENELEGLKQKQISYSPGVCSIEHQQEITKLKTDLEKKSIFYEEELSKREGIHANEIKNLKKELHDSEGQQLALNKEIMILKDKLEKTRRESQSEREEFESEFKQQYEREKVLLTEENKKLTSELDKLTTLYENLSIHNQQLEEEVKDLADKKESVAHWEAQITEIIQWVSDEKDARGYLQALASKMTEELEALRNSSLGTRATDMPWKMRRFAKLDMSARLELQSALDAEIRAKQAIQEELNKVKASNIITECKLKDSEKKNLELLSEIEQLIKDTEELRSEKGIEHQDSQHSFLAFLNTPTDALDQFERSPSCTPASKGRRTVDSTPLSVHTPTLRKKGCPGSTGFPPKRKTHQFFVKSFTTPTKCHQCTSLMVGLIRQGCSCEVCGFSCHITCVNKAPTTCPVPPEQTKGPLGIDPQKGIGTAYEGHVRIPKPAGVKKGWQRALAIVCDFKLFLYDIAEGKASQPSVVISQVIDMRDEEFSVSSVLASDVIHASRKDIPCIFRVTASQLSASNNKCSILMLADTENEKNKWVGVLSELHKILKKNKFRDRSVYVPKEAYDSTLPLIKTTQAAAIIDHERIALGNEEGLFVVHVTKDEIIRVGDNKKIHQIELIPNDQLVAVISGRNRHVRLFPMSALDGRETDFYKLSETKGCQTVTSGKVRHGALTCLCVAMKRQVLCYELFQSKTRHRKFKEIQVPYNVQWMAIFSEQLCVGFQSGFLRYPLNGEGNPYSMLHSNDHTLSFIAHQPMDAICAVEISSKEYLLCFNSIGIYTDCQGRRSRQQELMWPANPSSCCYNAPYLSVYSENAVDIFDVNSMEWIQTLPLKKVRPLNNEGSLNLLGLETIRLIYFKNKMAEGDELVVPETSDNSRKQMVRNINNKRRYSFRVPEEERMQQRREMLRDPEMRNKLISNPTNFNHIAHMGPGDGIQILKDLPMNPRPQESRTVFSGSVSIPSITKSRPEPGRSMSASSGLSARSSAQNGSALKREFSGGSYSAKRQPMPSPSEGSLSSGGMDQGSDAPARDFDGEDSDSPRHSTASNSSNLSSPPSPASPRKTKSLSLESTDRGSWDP
Chain of RhoA (P61586 whole entry): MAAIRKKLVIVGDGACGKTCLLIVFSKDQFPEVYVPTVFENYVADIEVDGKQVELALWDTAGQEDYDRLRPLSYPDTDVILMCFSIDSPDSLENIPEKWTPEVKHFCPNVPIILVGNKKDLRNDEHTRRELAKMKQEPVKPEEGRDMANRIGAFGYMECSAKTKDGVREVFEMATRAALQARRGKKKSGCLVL
Chain of Cdc42 (P60953 whole entry): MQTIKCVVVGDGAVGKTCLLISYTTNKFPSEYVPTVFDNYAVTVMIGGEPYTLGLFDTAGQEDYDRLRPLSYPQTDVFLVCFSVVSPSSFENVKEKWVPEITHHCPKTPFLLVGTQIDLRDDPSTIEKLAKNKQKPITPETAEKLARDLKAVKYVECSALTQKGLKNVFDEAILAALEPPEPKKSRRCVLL

**Q.** Which intraocular pressure [1] does the source give for `Cc1ccc(C(=O)OCc2ccc([C@@H](CN)C(=O)Nc3ccc4cnccc4c3)cc2)c(C)c1` [AR-13324] here?
**A.** reduced intraocular pressure

**Q.** With `O=C(Nc1cn[nH]c1-c1ccccn1)c1nn(C2CCNCC2)cc1Cl` [BDP5290] as the molecule, how does the pIC50 (ROCK1) read?
**A.** 8.30

**Q.** And the pIC50 (ROCK2)?
**A.** 7.30

**Q.** What about the pIC50 (MRCKα) of the same molecule?
**A.** 8.00

**Q.** And the “MLC phosphorylation induced by MRCKβ” value [2]?
**A.** completely inhibits

**Q.** Which results are given for `CC(C)NC(=O)COc1cccc(-c2nc(Nc3ccc4[nH]ncc4c3)c3ccccc3n2)c1` [Belumosudil]?
**A.** Tsp-1 and CTGF mRNA levels (PASMC): significant down-regulations; infarct volume [3]: dose-dependently reduces infarct volume

**Q.** With `CC(ONC(=O)c1cc(C(F)(F)F)cc(C(F)(F)F)c1)C(=O)Nc1ccc(Cl)cc1` (stereo not shown) [CCG-1423] as the molecule, how does the pIC50 (Rho signaling) read?
**A.** 5.82

**Q.** And the “spontaneous PC-3 cell invasion through a Matrigel matrix” value [4]?
**A.** selectively inhibited

**Q.** What about the “glucose uptake and tolerance” value [5] of the same molecule?
**A.** improved glucose uptake and tolerance

**Q.** With `O=C(Nc1ccc(Cl)cc1)C1CCCN(C(=O)c2cccc(-c3ccco3)c2)C1` (stereo not shown) [CCG-203971] as the molecule, how does the pIC50 (PC-3 cell) read?
**A.** 5.38

**Q.** What about the “TGF-β-induced MKL1 expression” value (MKL1 expression) of the same molecule?
**A.** significantly represses

**Q.** With `N[C@H](CNc1nc(-c2ccncc2)nc2sc3c(c12)CCCC3)Cc1ccccc1` [CRT0066854] as the molecule, how does the pIC50 (ROCK2) read?
**A.** 6.21

**Q.** Which results are given for `COCc1c(C(C)C)nc(C(C)C)c(/C=C/[C@@H](O)C[C@@H](O)CC(=O)O)c1-c1ccc(F)cc1` [Cerivastatin]?
**A.** pKi (HMG-COA reductase): 8.89; proliferation and invasiveness of MDA-MB-231 cells (MDA-MB-231 cells): inhibits proliferation and invasiveness

**Q.** With `COc1ccc2c(c1)C[C@H](C(=O)Nc1ccc(-c3cn[nH]c3)cc1OCCN(C)C)CO2` [Chroman 1] as the molecule, how does the pIC50 (MRCK) read?
**A.** 6.82

**Q.** With `Cc1cncc2cccc(S(=O)(=O)N3CCCNC[C@@H]3C)c12` [Compound H-1152] as the molecule, how does the pKi (ROCK [6]) read?
**A.** 8.80

**Q.** What about the pKi (PKC) of the same molecule?
**A.** 5.03

**Q.** And the pKi (MLCK)?
**A.** 5.00

**Q.** And the neurite length (neuronal cultures; 10 μM, BMP4 and LIF cultures)?
**A.** increases neurite length

**Q.** What about the neuronal survival (neuronal cultures; 0.5-10 μM) of the same molecule?
**A.** no decreased neuronal survival

**Q.** With `Cc1cccc(COc2cccc(/C=C3\C(=O)NN(c4ccccc4)C3=O)c2)c1` [Compound Y16] as the molecule, how does the pKd [7] read?
**A.** 7.12

**Q.** What about the “RhoA-GTP formation induced by serum” value (NIH 3T3 cells) of the same molecule?
**A.** inhibit RhoA-GTP formation

**Q.** And the “serum or SDF-1α-induced phospho-MLC and phospho-FAK formation” value (NIH 3T3 cells)?
**A.** efficiently inhibits

**Q.** With `Cc1ccc(NC(=O)c2cccc(OCc3c(C)noc3C)c2)cc1S(N)(=O)=O` [Compound Z62954982] as the molecule, how does the pIC50 (Rac1) read?
**A.** 4.92

**Q.** What about the “times more effective than NSC23766” value (Rac1) of the same molecule?
**A.** 4 times

**Q.** What about the “activity of other Rho GTPases” value [8] of the same molecule?
**A.** without affecting the activity

**Q.** Which blood pressure [9] does the source give for `CCn1c(-c2nonc2N)nc2cnc(Oc3cccc(NC(=O)c4ccc(OCCN5CCOCC5)cc4)c3)cc21` [GSK269962A] here?
**A.** dose-dependent reduction in blood pressure

**Q.** Which results are given for `CC1=C(C(=O)Nc2cc3cn[nH]c3cc2F)C(c2ccc(Cl)cc2F)N=C(c2ccnc(Cl)c2)N1` (stereo not shown) [GSK-25]?
**A.** pIC50 (ROCK1): 8.15; blood pressure [9]: drop in blood pressure

**Q.** Which results are given for `O=S(=O)(c1cccc2cnccc12)N1CCNCC1` [HA-100]?
**A.** pIC50 (PKA; read-out: IC50 for cAMP-dependent protein kinase (PKA)): 5.10; pKi (PKC): 5.19; pIC50 (PKC; read-out: IC50 for protein kinase C (PKC)): 4.92; pIC50 (MLCK; read-out: IC50 for MLC-kinase): 3.62; pKi (MLCK): 4.21; pIC50 [10]: 5.40

**Q.** With `O=C(O)/C=C/c1cccc(Nc2cnc3ccccc3n2)c1` [HL07] as the molecule, how does the “phenylephrine (PE)-induced contraction” value (rat aorta) read?
**A.** inhibited

**Q.** With `COc1c(B(O)O)cccc1-c1nc2ccc3[nH]ncc3c2c2c1CCC2` [HSD1590] as the molecule, how does the pKd (ROCK [11]) read?
**A.** > 8.70

**Q.** And the migration [12]?
**A.** impressive attenuation in migration

**Q.** With `Cc1c[nH]c2ncnc(N3CCC(CN)(C(=O)Nc4cccc(OC(=O)N(C)C)c4)CC3)c12` [LX7101] as the molecule, how does the pIC50 (PKA; read-out: IC50 for PKA) read?
**A.** > 9.00

**Q.** With `O=S(=O)(c1cccc2c(I)cccc12)N1CCCNCC1` [ML-07 hydrochloride] as the molecule, how does the pIC50 (MLCK; read-out: IC50 for MLCK) read?
**A.** 6.52

**Q.** With `NS(=O)(=O)c1ccc(N2N=C(c3ccccc3)CC2c2ccccc2)cc1` (stereo not shown) [MLS-573151] as the molecule, how does the pEC50 (Cdc42) read?
**A.** 5.70

**Q.** What about the “fluorescence intensities of phagocytosed beads or bacteria (phagocytosis efficiency)” value (granulocytes) of the same molecule?
**A.** markedly reduced

**Q.** And the “activity against other GTPases family members” value [13]?
**A.** inactive

**Q.** With `c1cc(-c2ncco2)cc(-c2nnc(Nc3ccc4[nH]ncc4c3)s2)c1` [ROCK2-IN-2] as the molecule, how does the pIC50 (ROCK2) read?
**A.** > 6.00

**Q.** With `N[C@H](Cc1c[nH]c2ccccc12)C(=O)N/N=C/c1ccc2nccnc2c1` [Rhosin hydrochloride] as the molecule, how does the pKd (RhoA) read?
**A.** ~6.40

**Q.** Which results are given for `N[C@H](Cc1c[nH]c2ccccc12)C(=O)N/N=C/c1ccc2nccnc2c1` [Rhosin]?
**A.** lung metastasis of B16BL6 and 4T1 cells (B16BL6 and 4T1 cells): abrogates the lung metastasis; interaction with Cdc42 or Rac1, or LARG [14]: does not interact

**Q.** With `O=c1[nH]ccc2cc(OC3CCNCC3)ccc12` [SAR407899] as the molecule, how does the pIC50 (ROCK2) read?
**A.** 6.87

**Q.** And the pKi (rat ROCK-2)?
**A.** 7.39

**Q.** What about the “ROCK-mediated phosphorylation of MYPTT696” value [15] of the same molecule?
**A.** inhibits

**Q.** Which results are given for `CCCOC(=O)c1cccc(-c2cc(C(=O)Nc3ccncc3F)ccc2CN)c1` [Sovesudil]?
**A.** pIC50 (ROCK1): 8.43; pIC50 (ROCK2): 8.64; Intraocular Pressure (IOP) ([16]; ocular normotensive and acute hypertensive male rabbits): effectively reduces Intraocular Pressure; hyperemia ([16]; rabbits): without causing distinct hyperemia

**Q.** With `C[C@@H](N)c1ccc(C(=O)Nc2ccncc2)cc1` [Wf-536, (+)-(R)-4-(1-aminoethyl)-N-(4-pyridyl)benzamide monohydrochloride] as the molecule, how does the “in vitro invasion of B16 melanoma” value (B16 melanoma [17]) read?
**A.** effectively reduced

**Q.** What about the “in vivo pulmonary metastasis of B16 melanoma” value (B16 melanoma [18]) of the same molecule?
**A.** effectively reduced

**Q.** With `Br.Oc1cc2c(cc1O)C(Cc1cccc3ccccc13)NCC2` (stereo not shown) [YS-49] as the molecule, how does the pIC50 (RAVSMC) read?
**A.** 4.66

**Q.** What about the pIC50 (RAW 264.7) of the same molecule?
**A.** 4.52

**Q.** And the “iNOS gene expression induced by LPS and/or cytokines” value (iNOS gene expression)?
**A.** suppresses iNOS gene expression

**Q.** With `COc1ccc(CC(=O)Nc2nc3c(s2)CCc2ccccc2-3)cc1OC` [ZINC00881524] as the molecule, how does the “levels of ROCK1” value [19] read?
**A.** decreases levels of ROCK1

**Q.** What does the source list for “myosin light chain kinase inhibitor peptide, sequence RKKYKYRRK (SEQ ID NO:1) (MLCK inhibitor peptide 18) [MLCK18]”?
**A.** inhibition of PKA (PKA): without inhibiting PKA; pIC50 (MLCK; read-out: IC50 for MLCK): 7.30; selectivity vs CaM kinase II (CaM kinase II): 4000 fold
